Laboratory results from US8815872B2, “Macrocyclics pyrimidines as aurora kinase inhibitors” (Merck Patent GmbH, priority 2008, dated 2014).

Assays:
[1] = target: T1, Lyn(h) (Homo sapiens, UniProt P07948); assay: Other kinases, single-concentration inhibition (Table 3); assay type: biochemical; settings: 1 μM
T1 construct: purchased Caliper Life Sciences
Method in brief: (§1)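 Caliper mobility-shift kinase assay with labelled peptide and ATP at kinase-specific levels. 90 min, 25 °C, single compound dose.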

[2] = target: T2, FGFR1(h) (Homo sapiens, UniProt P11362); assay: as above; assay type: biochemical; settings: 1 μM
T2 construct: purchased Caliper Life Sciences
Method in brief: as §1

[3] = target: T3, p70S6K(h) (Homo sapiens, UniProt P23443); assay: as above; assay type: biochemical; settings: 1 μM
T3 construct: purchased Caliper Life Sciences
Method in brief: as §1

[4] = target: T4, CHK1(h) (Homo sapiens, UniProt O14757); assay: as above; assay type: biochemical; settings: 1 μM
T4 construct: purchased Caliper Life Sciences
Method in brief: as §1

[5] = target: T5, CDK2/cyclinA(h) (Homo sapiens, UniProt P24941); assay: as above; assay type: biochemical; settings: 1 μM
T5 construct: purchased Caliper Life Sciences
Method in brief: as §1

[6] = target: T6, c-RAF(h) (Homo sapiens, UniProt P04049); assay: as above; assay type: biochemical; settings: 1 μM
T6 construct: purchased Caliper Life Sciences
Method in brief: as §1

[7] = target: T7, CHK2(h) (Homo sapiens, UniProt O96017); assay: as above; assay type: biochemical; settings: 1 μM
T7 construct: purchased Caliper Life Sciences
Method in brief: as §1

[8] = target: T8, Fms(h) (Homo sapiens, UniProt P07333); assay: as above; assay type: biochemical; settings: 1 μM
T8 construct: purchased Caliper Life Sciences
Method in brief: as §1

[9] = target: T9, Yes(h) (Homo sapiens, UniProt P07947); assay: as above; assay type: biochemical; settings: 1 μM
T9 construct: purchased Caliper Life Sciences
Method in brief: as §1

[10] = target: T10, Flt4(h) (Homo sapiens, UniProt P35916); assay: as above; assay type: biochemical; settings: 1 μM
T10 construct: purchased Caliper Life Sciences
Method in brief: as §1

[11] = target: T11, cSRC(h) (Homo sapiens, UniProt P12931); assay: as above; assay type: biochemical; settings: 1 μM
T11 construct: purchased Caliper Life Sciences
Method in brief: as §1

[12] = target: T12, DDR2(h) (Homo sapiens, UniProt Q16832); assay: as above; assay type: biochemical; settings: 1 μM
T12 construct: purchased Caliper Life Sciences
Method in brief: as §1

[13] = target: T13, SIK(h) (Homo sapiens, UniProt P57059); assay: as above; assay type: biochemical; settings: 1 μM
T13 construct: purchased Caliper Life Sciences
Method in brief: as §1

[14] = target: T14, PDGFRα(h) (Homo sapiens, UniProt P16234); assay: as above; assay type: biochemical; settings: 1 μM
T14 construct: purchased Caliper Life Sciences
Method in brief: as §1

[15] = target: T15, Plk1(h) (Homo sapiens, UniProt P53350); assay: as above; assay type: biochemical; settings: 1 μM
T15 construct: purchased Caliper Life Sciences
Method in brief: as §1

[16] = target: T16, Plk3(h) (Homo sapiens, UniProt Q9H4B4); assay: as above; assay type: biochemical; settings: 1 μM
T16 construct: purchased Caliper Life Sciences
Method in brief: as §1

[17] = target: T17, Abl(T315I)(h) (Homo sapiens, UniProt P00519, T315I); assay: Inhibition of other kinases IC50 (Table 2); assay type: biochemical
T17 construct: purchased Caliper Life Sciences
Procedure: (§2) The Aurora and other kinase assays described here were performed on two Caliper Life Sciences systems, the LC3000 and the Desktop Profiler. These provide data on enzyme activity via measurement of the relative amounts of phosphorylated or unphosphorylated fluorescently labelled substrate peptide at the end of an enzymatic reaction. These different states of peptide are resolved by applying a potential difference across the sample. The presence of a charged phosphate group on the product (as opposed to the substrate) causes a different peptide mobility between the two peptides. This is visualized by excitation of a fluorescent label on the substrate and product peptides and represented as peaks within the analysis software.

[18] = target: T18, IRAK4(h) (Homo sapiens, UniProt Q9NWZ3); assay: Inhibition of other kinases IC50 (Table 2); assay type: biochemical
T18 construct: purchased Caliper Life Sciences
T18 sequence (Q9NWZ3 1-460): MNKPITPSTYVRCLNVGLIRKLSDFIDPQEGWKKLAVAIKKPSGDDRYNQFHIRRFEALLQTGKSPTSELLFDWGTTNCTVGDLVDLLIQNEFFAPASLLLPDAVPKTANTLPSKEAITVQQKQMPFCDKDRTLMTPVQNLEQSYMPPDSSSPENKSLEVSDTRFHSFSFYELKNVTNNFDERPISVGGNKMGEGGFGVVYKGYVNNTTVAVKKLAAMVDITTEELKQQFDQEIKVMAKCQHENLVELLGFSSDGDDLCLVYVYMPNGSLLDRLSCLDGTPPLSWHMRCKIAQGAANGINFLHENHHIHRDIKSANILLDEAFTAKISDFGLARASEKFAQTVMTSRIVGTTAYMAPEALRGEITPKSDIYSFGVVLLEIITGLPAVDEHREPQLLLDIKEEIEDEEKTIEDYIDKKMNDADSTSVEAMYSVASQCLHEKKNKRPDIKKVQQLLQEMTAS
Procedure: as §2

[19] = target: T19, NEK6 (Homo sapiens, UniProt Q9HC98); assay: Other kinases, inhibition at 1 μM (Table 3); assay type: biochemical
T19 construct: purchased Caliper Life Sciences
Method in brief: as §1

[20] = from C=CCOc1cccc(Nc2ncc(F)c(N[C@H]3[C@@H](C(N)=O)[C@@H]4C=C[C@H]3C4)n2)c1; rcm bond; Grubbs 2nd generation; dichloromethane; 19.2 mM; 40.0 °C; 3.0 h
[21] = target: T20, FAK(h) (Homo sapiens, UniProt Q05397); assay: Inhibition of other kinases IC50 (Table 2); assay type: biochemical
T20 construct: purchased Caliper Life Sciences
Procedure: as §2

[22] = target: T21, Pyk2(h) (Homo sapiens, UniProt Q14289); assay: Inhibition of other kinases IC50 (Table 2); assay type: biochemical
T21 construct: purchased Caliper Life Sciences
Procedure: as §2

T19 sequence (Q9HC98 whole entry, species assumed): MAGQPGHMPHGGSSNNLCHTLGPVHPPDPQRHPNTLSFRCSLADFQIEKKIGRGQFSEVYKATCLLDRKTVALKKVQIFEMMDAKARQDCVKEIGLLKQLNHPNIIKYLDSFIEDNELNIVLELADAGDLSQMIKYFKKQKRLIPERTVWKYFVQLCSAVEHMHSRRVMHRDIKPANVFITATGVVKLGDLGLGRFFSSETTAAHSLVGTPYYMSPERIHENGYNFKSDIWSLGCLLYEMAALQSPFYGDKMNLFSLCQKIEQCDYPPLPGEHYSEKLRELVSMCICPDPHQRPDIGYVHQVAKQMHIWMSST
T12 sequence (Q16832 22-855): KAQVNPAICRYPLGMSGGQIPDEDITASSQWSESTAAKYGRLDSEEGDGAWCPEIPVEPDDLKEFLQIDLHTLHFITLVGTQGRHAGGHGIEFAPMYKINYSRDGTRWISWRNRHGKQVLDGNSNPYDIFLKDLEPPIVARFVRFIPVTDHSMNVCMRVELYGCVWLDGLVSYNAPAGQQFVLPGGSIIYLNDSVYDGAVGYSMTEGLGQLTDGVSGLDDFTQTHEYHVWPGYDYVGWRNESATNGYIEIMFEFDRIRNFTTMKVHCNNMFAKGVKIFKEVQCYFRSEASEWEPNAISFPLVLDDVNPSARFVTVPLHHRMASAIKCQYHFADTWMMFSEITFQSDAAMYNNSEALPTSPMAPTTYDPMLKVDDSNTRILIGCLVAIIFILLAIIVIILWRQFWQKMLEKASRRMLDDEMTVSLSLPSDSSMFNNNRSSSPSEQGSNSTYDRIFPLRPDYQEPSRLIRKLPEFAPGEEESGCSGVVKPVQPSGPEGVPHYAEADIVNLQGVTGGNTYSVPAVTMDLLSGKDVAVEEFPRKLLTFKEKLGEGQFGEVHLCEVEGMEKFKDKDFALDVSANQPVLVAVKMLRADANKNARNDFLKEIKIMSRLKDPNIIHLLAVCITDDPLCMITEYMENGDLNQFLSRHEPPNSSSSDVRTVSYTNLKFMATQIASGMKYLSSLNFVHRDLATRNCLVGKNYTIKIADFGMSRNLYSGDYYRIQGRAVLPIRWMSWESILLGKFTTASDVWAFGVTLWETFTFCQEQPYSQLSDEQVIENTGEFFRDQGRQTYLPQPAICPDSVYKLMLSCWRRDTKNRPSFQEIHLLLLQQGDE
T8 sequence (P07333 20-972): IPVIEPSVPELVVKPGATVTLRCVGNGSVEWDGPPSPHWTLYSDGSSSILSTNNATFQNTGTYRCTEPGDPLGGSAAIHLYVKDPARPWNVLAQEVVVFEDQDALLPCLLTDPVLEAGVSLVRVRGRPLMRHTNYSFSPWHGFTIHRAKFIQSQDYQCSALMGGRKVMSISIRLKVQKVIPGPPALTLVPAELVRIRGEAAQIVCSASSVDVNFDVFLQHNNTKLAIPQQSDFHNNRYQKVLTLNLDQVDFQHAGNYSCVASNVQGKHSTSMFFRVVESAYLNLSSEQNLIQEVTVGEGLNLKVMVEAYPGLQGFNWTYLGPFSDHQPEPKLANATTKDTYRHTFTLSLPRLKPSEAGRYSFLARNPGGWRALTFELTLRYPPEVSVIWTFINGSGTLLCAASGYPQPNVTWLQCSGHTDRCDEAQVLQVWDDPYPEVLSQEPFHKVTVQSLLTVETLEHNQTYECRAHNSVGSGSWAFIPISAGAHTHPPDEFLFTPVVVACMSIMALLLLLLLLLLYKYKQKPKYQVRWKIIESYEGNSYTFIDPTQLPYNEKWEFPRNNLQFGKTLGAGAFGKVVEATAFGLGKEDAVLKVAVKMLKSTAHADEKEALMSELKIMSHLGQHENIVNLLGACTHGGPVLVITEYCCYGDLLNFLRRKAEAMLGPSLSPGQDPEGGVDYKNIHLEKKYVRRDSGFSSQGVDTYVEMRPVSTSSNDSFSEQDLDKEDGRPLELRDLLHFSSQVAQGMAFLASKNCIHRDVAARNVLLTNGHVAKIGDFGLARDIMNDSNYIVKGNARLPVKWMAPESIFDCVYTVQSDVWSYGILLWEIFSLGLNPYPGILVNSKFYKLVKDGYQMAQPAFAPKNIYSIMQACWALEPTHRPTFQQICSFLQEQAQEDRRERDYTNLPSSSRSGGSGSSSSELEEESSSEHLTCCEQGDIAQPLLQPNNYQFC
T2 sequence (P11362 22-822): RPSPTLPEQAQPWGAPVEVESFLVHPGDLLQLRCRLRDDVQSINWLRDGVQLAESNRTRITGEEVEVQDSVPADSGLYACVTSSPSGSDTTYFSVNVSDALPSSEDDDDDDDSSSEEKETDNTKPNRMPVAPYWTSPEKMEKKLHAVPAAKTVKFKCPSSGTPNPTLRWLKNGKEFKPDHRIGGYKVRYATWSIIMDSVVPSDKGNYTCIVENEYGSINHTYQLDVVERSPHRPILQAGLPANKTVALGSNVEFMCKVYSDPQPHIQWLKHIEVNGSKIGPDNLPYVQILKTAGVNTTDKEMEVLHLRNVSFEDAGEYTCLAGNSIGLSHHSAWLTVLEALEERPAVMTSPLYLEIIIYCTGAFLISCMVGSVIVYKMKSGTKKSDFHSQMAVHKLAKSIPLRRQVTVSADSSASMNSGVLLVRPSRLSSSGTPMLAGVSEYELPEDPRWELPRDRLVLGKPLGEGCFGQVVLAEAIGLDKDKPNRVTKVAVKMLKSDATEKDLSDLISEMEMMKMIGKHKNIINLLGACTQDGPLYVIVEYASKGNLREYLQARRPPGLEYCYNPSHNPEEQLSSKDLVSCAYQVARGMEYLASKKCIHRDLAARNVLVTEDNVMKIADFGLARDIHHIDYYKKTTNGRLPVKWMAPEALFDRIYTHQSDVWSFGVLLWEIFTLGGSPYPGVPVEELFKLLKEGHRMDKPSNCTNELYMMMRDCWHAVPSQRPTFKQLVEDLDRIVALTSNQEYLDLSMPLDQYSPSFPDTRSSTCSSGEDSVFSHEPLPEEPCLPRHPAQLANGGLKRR
T13 sequence (P57059 whole entry): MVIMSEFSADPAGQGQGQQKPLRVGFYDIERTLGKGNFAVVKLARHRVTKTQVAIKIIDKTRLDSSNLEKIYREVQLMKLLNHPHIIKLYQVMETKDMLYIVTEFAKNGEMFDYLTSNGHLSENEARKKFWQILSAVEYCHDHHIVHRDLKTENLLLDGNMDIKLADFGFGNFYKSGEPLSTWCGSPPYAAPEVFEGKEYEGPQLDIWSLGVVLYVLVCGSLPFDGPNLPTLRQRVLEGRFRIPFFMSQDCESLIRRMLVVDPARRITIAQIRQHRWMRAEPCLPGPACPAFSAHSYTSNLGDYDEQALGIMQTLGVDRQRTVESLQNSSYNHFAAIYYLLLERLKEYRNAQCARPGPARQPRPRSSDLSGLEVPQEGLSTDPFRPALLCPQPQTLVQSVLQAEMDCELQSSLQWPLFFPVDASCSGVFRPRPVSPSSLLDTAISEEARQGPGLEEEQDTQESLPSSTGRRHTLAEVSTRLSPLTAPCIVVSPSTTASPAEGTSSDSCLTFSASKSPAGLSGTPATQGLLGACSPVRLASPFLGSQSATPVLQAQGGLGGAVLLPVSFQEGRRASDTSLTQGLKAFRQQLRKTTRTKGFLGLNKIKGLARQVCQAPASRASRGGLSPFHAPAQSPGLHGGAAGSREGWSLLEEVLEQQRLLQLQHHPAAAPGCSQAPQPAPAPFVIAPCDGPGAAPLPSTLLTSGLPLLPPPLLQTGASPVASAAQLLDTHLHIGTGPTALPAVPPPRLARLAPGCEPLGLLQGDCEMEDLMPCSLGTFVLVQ
T1 sequence (P07948 whole entry): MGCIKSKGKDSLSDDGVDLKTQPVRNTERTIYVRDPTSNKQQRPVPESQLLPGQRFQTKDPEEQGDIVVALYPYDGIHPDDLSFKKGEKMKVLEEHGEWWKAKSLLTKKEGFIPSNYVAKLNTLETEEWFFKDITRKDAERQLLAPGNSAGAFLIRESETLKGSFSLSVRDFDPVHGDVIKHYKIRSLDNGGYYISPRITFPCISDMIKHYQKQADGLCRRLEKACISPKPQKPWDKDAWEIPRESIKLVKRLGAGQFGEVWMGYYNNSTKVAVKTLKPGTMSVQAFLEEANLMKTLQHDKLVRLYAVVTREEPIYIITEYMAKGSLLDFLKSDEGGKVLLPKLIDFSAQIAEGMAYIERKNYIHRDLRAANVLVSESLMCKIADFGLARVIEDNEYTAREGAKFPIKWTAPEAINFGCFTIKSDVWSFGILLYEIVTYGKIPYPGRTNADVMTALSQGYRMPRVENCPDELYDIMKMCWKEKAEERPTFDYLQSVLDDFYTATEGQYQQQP
T4 sequence (O14757 whole entry): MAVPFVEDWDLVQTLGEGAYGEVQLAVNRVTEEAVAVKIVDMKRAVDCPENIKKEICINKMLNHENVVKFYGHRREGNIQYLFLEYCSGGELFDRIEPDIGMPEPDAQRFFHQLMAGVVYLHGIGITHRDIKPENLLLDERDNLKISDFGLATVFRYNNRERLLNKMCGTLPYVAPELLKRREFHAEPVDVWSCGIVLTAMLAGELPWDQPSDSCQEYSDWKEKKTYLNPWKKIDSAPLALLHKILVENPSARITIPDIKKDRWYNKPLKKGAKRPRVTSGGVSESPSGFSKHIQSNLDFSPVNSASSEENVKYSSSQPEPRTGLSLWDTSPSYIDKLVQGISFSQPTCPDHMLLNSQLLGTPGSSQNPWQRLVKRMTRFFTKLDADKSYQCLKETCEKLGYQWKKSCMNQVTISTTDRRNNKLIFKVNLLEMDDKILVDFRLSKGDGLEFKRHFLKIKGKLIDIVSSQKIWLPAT

CN1CCN(c2ccc3cc2OCCS[C@@H]2C[C@@H]4C[C@H]2[C@@H](Nc2nc(ncc2F)N3)[C@H]4C(N)=O)CC1 [Example 22]
% inhibition Lyn(h) [1]: 12% | % inhibition FGFR1(h) [2]: 5% | % inhibition p70S6K(h) [3]: 83% | % inhibition CHK1(h) [4]: 101% | % inhibition CDK2/cyclinA(h) [5]: 96% | % inhibition c-RAF(h) [6]: 107% | % inhibition CHK2(h) [7]: 64% | % inhibition Fms(h) [8]: 82% | % inhibition Yes(h) [9]: 2% | % inhibition Flt4(h) [10]: 11% | % inhibition cSRC(h) [11]: 16% | % inhibition DDR2(h) [12]: 96% | % inhibition SIK(h) [13]: 25% | % inhibition PDGFRα(h) [14]: 87% | % inhibition Plk1(h) [15]: 87% | % inhibition Plk3(h) [16]: 104%

NC(=O)[C@H]1[C@H]2C[C@H]3[C@H]1Nc1nc(ncc1F)Nc1cccc(c1)NC(=O)CS[C@@H]3C2 [Example 27]
IC50 [17]: 1 to 100 nM | IC50 [18]: 1 to 100 nM

NC(=O)[C@H]1[C@H]2C[C@H]3[C@H]1Nc1nc(ncc1F)Nc1cccc(c1)CSS[C@@H]3C2 [Example 10]
% inhibition NEK6 [19]: 93%

C=C[C@@H]1C[C@@H]2/C=C/COc3cccc(c3)Nc3ncc(F)c(n3)N[C@H]2[C@H]1C(N)=O (single isomer, unassigned) [Example 3]
ring closure, yield of all isomers [20]: 15%

NC(=O)[C@H]1[C@H]2C[C@H]3[C@H]1Nc1nc(ncc1F)Nc1cccc(c1)OCCS[C@@H]3C2 [Example 20]
IC50 [21]: 101 to 1000 nM | IC50 [22]: 101 to 1000 nM | IC50 [18]: 101 to 1000 nM
